Article PMC12664493, “Asparagine endopeptidase (AEP) inhibitor formulation via zein-based nanoparticle improves the therapeutic efficacy toward Alzheimer's disease” (Neurotherapeutics, 2025)
Read-outs that look alike come from different tables or passages of the source.

Assays:
[1] = target: T1, recombinant AEP enzyme (Homo sapiens, UniProt Q99538); assay: In vitro AEP enzymatic inhibition assay; assay type: biochemical; conditions: read-out: IC50 toward recombinant AEP enzyme (in vitro)
T1 sequence (Q99538 18-433): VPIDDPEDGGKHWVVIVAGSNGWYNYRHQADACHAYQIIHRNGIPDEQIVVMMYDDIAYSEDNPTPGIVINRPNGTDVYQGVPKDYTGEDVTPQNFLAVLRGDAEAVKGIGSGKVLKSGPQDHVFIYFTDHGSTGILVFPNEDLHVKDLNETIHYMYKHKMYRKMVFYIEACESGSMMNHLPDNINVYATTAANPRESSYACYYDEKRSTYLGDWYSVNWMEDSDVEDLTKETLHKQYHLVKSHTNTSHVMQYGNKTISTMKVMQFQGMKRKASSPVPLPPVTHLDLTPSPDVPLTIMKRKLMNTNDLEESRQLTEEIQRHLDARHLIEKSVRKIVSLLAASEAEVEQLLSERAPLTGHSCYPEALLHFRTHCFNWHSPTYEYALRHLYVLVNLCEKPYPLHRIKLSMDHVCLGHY
Description: AEP activity was assessed as previously described [21]. Tissue homogenates (10 ​μg protein) were incubated with 20 ​μM AEP-specific fluorogenic substrate in 200 ​μL of optimized assay buffer (20 ​mM citric acid, 60 ​mM Na2HPO4, 1 ​mM EDTA, 0.1 ​% CHAPS, 1 ​mM DTT; pH 6.0) to quantify enzymatic activity. Reactions were performed at 37 ​°C in a temperature-controlled microplate reader (BioTek Synergy HTX Multimode Reader, Agilent, California, USA). AEP-mediated cleavage of the substrate, liberating fluorescent 7-amino-4-methylcoumarin (AMC), was monitored kinetically by measuring emission at 460 ​nm (excitation: 380 ​nm) every 5 ​min over 60-min. Fluorescence values were normalized to background signal from substrate-free controls, and enzyme activity was calculated as the rate of AMC generation (RFU/min/μg protein) during the linear phase of the reaction.

[2] = target: T2, AEP (Rattus norvegicus, UniProt Q9R0J8); assay: AEP inhibition in cultured primary neurons; assay type: cell-based
T2 construct: endogenous in cells; host or cells: primary rat cortical neurons
T2 sequence (Q9R0J8 18-435): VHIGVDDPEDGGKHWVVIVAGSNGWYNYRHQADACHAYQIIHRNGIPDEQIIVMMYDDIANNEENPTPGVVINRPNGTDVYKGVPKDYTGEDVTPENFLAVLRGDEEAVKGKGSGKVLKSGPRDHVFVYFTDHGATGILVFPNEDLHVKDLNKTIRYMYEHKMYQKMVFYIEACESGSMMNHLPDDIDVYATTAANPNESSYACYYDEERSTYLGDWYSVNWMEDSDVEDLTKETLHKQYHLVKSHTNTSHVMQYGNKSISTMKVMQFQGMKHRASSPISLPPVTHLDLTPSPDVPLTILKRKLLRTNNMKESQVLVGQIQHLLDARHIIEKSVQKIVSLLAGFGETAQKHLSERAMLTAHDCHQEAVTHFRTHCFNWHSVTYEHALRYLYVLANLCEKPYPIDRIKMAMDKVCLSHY

[3] = Solubility (pH 7.4, PBS); assay type: physicochemical
[4] = Stability in human liver microsomes; assay type: in vitro ADME; conditions: for half-life: read-out: Stability-Microsomes T1/2
[5] = Stability in mouse liver microsomes; assay type: in vitro ADME; conditions: for half-life: read-out: Stability-Microsomes T1/2
[6] = Stability in human hepatocytes; assay type: in vitro ADME; conditions: for half-life: read-out: Stability-Hepatocytes T1/2
[7] = Stability in mouse hepatocytes; assay type: in vitro ADME
[8] = Stability in human plasma; assay type: in vitro ADME; conditions: read-out: Stability-Plasma T1/2
[9] = Stability in mouse plasma; assay type: in vitro ADME; conditions: read-out: Stability-Plasma T1/2
[10] = Plasma protein binding, human; assay type: in vitro ADME
[11] = Plasma protein binding, mouse; assay type: in vitro ADME
[12] = PAMPA-BBB permeability assay; assay type: in vitro ADME; conditions: read-out: Permeability-PAMPA-BBB Pe
[13] = Caco-2 permeability; assay type: in vitro ADME; conditions: human; for Papp A→B: first value of the cell
[14] = target: T3, P-glycoprotein (MDR1) (Homo sapiens, UniProt P08183); assay: MDR1-MDCKII permeability assay (P-glycoprotein efflux); assay type: in vitro ADME; conditions: dog, MDCK-MDR1; for Papp A→B: first value in brackets; for Papp B→A: second value in brackets
T3 construct: expressed in transfected cells; host or cells: MDCKII
T3 sequence (P08183 whole entry): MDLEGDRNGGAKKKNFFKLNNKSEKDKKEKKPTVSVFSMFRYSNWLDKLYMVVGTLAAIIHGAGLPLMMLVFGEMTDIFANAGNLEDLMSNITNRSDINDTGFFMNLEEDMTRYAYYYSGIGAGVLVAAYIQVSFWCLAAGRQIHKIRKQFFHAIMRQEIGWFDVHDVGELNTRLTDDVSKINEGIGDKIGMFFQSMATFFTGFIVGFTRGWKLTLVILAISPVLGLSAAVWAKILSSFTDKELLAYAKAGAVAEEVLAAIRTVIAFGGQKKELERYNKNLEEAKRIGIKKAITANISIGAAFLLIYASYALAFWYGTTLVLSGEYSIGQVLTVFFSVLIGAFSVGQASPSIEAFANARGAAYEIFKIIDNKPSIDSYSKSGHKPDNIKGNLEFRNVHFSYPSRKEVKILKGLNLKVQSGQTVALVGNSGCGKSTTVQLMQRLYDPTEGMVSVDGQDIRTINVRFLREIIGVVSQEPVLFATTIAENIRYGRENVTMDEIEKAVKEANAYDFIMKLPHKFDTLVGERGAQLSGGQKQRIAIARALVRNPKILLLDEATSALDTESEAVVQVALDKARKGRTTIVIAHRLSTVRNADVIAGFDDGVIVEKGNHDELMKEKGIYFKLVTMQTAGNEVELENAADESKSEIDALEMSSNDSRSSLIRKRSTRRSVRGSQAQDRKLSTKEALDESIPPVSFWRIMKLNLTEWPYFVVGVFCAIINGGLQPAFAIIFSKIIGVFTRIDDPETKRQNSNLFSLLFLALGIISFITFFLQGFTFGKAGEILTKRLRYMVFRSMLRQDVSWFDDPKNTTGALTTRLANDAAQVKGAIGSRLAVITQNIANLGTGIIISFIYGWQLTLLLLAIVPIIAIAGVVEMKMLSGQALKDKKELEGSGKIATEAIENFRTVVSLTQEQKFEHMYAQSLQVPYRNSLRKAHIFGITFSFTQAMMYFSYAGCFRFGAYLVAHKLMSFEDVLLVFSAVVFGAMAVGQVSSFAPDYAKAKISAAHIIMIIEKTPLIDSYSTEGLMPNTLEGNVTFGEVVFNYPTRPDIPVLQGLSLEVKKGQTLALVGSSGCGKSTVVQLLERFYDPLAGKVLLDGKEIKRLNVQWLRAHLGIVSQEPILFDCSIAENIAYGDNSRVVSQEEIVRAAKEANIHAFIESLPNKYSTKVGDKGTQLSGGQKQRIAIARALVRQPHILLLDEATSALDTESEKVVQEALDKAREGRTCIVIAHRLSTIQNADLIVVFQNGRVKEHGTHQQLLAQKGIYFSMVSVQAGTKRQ

[15] = target: hERG K+ channel (Homo sapiens, UniProt Q12809); assay: hERG inhibition assay
hERG K+ channel, sequence (Q12809 whole entry): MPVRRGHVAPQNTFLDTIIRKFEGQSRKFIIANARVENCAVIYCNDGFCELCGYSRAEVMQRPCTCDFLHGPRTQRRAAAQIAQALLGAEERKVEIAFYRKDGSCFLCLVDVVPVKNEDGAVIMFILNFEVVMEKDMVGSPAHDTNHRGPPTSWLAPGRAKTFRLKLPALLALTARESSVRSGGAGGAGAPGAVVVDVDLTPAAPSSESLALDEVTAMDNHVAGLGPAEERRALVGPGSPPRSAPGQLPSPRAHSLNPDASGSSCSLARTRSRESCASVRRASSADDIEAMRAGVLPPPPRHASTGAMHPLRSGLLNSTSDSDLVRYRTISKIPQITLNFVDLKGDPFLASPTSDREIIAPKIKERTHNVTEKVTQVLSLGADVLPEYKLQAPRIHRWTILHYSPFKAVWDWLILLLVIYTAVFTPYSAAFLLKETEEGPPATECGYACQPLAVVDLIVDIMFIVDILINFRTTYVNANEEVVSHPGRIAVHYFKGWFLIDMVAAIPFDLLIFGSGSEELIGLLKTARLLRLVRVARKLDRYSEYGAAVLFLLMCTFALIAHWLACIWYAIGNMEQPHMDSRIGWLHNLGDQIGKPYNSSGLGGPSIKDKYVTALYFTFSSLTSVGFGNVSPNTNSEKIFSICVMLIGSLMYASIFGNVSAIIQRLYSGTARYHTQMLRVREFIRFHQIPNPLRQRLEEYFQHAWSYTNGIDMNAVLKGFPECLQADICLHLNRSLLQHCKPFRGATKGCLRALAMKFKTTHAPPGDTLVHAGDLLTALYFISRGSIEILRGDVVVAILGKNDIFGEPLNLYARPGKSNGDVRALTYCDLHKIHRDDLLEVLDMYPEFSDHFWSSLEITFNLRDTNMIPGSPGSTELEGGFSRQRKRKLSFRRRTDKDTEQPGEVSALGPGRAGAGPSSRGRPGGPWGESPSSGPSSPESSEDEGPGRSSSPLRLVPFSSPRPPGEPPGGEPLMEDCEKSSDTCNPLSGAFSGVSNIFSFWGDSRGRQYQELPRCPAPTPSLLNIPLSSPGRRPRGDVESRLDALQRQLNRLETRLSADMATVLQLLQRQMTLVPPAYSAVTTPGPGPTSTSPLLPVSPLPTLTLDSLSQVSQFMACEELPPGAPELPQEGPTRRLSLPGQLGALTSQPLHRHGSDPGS

[16] = Stability in rat hepatocytes; assay type: in vitro ADME
[17] = Plasma and brain concentrations after acute oral treatment of 3xTg mice; assay type: in vivo; conditions: both sexes, mouse, plasma, 7.5 mg/kg, P.O. 7.5 mg/kg, read-out: Concentration in plasma, Serum Mean
Source text: Blood and brain tissues were collected at 0, 0.08, 0.25, 0.5, 1, 2, 4, and 8 h post-administration.

[18] = target: T4, AEP (Mus musculus, UniProt O89017); assay: Acute PD in 3xTg mice: brain AEP enzymatic activity and immunoblotting; assay type: in vivo; conditions: 2 h
T4 construct: from tissue; host or cells: brain / hippocampus of 3xTg mice
T4 sequence (O89017 18-435): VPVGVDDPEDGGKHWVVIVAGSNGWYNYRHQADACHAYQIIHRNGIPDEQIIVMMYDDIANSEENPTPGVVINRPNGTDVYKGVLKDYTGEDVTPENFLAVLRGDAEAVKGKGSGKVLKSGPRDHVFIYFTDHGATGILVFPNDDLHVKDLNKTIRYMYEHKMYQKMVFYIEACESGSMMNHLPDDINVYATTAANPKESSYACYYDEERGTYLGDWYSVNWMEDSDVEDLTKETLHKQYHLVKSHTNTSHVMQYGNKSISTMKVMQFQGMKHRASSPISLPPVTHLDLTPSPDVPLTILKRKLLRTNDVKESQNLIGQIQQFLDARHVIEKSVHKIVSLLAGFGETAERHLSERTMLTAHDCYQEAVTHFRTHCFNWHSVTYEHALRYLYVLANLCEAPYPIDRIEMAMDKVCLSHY

[19] = target: T4, AEP; assay: Chronic one-month oral treatment of 3xTg mice: AEP activation and substrate cleavage; assay type: in vivo; conditions: 7.5 mg/kg P.O. daily
[20] = tested on: 3xTg mice; assay: Y-maze test in 3xTg mice; assay type: in vivo, mouse; conditions: 7.5 mg/kg P.O. daily, one month
Source text: Blood and brain tissues were collected at 0, 0.08, 0.25, 0.5, 1, 2, 4, and 8 h post-administration. For acute pharmacodynamic (PD) assessments, male and female 3xTg mice received oral doses of NP-11a-isopropyl at 7.5 mg/kg or 15 mg/kg, and blood and brain samples were collected 2 h after treatment.
The Y-maze test was employed to evaluate spatial working memory and spontaneous alternation behavior, a measure of natural exploratory pattern integrity. The apparatus comprised three symmetrical opaque arms (A, B, C; 30 cm length × 8 cm width × 15 cm height) intersecting at 120° angles to form a Y-shaped configuration. Mice were habituated to the maze during a 5-min acclimatization period to minimize novelty-induced anxiety. Following habituation, spontaneous exploration was recorded for 8 min using an overhead camera, with all trials conducted under consistent low-light conditions to reduce environmental stress. EthoVision XT 12 software (Noldus, Wageningen, The Netherlands) quantified total arm entries, entry sequences, and alternation patterns (consecutive entries into three distinct arms without repetition). The maze was thoroughly cleaned with 70 % ethanol between trials to eliminate olfactory cues.

[21] = design: method as in PMID 38030711; conditions: cited from earlier work
[22] = target: T5, BCRP (Homo sapiens, UniProt Q9UNQ0); assay: Caco-2-BCRP assay with and without Ko143; assay type: in vitro ADME; conditions: human, Caco-2, Ko143 0 μM
T5 construct: endogenous in cells; host or cells: Caco-2
T5 sequence (Q9UNQ0 1-655): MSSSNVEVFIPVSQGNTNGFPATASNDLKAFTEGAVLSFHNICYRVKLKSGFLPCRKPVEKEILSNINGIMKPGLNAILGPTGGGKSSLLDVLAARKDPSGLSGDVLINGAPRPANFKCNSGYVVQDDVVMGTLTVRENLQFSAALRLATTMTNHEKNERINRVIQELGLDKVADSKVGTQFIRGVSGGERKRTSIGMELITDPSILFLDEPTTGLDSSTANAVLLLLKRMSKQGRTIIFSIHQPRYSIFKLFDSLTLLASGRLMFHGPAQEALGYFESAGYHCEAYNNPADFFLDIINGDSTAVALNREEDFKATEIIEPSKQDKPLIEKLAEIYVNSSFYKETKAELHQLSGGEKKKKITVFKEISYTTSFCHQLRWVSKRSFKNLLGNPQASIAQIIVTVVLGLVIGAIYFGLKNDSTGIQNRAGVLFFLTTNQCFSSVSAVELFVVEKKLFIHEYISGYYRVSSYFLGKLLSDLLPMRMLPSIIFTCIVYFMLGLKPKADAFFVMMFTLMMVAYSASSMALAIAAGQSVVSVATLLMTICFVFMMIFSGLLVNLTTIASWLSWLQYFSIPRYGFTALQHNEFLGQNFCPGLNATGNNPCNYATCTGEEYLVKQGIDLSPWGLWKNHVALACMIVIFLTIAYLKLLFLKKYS

[23] = aqueous buffer, pH 7.4, read-out: Solubility (pH, media)
[24] = read-out: Stability-Hepatocytes T1/2

IC50 [2] [nM]	solubility [3, 23] [mg/mL]	microsomal CLint [4] [µL/min/mg]	half-life [4] [h]	microsomal CLint [5] [µL/min/mg]	half-life [5] [h]	hepatocyte CLint [6] [µL/min/1e6 cells]	half-life [6] [h]	half-life [8] [h]	half-life [9] [h]	Plasma Protein F u, plasma(%) [10] [%]	Plasma Protein F u, plasma(%) [11] [%]	Papp [12] [×10⁻⁶ cm/s]	Papp A→B [13] [×10⁻⁶ cm/s]	Papp A→B [14] [×10⁻⁶ cm/s]	Papp B→A [14] [×10⁻⁶ cm/s]	Papp A→B [22] [×10⁻⁶ cm/s]	Papp B→A [22] [×10⁻⁶ cm/s]	recovery ([22]; read-out: Recovery (%) A→B) [%]	recovery ([22]; read-out: Recovery (%) B→A) [%]	Structure (SMILES)	also measured
55	5.03	45.5	0.508	302	0.0765	31.3	> 0.738	> 8	> 8	6.4	20	10.4	11.8	1.44	60.5					OCc1cc(Nc2nnc(N3CCCC3)s2)c2nonc2c1N1CCOCC1 [11a-pentyl]	IC50 [1]: 14.7 nM; solubility ([3]; pH 7.4, aqueous buffer, pH7.4, read-out: Solubility (pH, media)): 12.5 mM; hepatocyte CLint [7]: 28.5 µL/min/1e6 cells; half-life [7, 24]: > 0.81 h; efflux ratio [13]: 1.28; Papp B→A ([13]; value after the slash, head names only a-b, read-out: Permeability-Caco-2 Papp, second value of the cell (taken as b-a)): 14.8 ×10⁻⁶ cm/s; efflux ratio ([14]; third value of the cell, not given, read-out: Permeability-MDR1-MDCKII, value after the brackets (efflux ratio)): 42.1; IC50 [15]: > 10000 nM
45	150	12.8	> 3	19.9	1.93	4.1	5.67	> 8	> 8	43.3	26.9	1.62	10.6	0.78	29.2					CNc1nnc(Nc2cc(CO)c(N3CCOCC3)c3nonc23)s1 [11a]	hepatocyte CLint [16]: 3 µL/min/1e6 cells; half-life [16, 24]: > 8 h; hERG IC50 [15]: negative; concentration at 2 h [17]: 161 ng/mL; AEP enzymatic activity in the brain ([18]; acute P.O. 7.5 and 15 mg/kg, dose-dependent): substantially inhibited; Active AEP band intensity, hippocampus immunoblotting ([18]; acute P.O.): reduced; AEP activation, APP N585 and Tau N368 fragmentation, hippocampus immunoblotting [19]: gradually reduced; Cognitive function in the Y maze [20]: significantly improved; Brain Cmax ([21]; 11a at 10 mg/kg): 27.012 ng/mL; Brain AUC ([21]; oral administration): 128.980; Plasma AUC ([21]; oral administration): 516.028
																0.272	0.679	91.5	106	CC(C)(C)NCC(O)COc1cccc2c1CC(O)C(O)C2 (centres unmarked) [Nadolol, reference compound]	
																29.3	30.5	93.5	102	CC(C)NCC(O)COc1cccc2ccccc12 (centres unmarked) [Propranolol, reference compound]	
